Laboratory results reported in ChEMBL document CHEMBL1201862, “PubChem BioAssay data set” (2004).
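Five compound concentrations were applied to cells in 96-well plates for 48 hours; endpoints were derived by simple linear interpolation of the resulting dose-response curve. GI50: concentration for 50% inhibition of growth.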 Activity calls are given as the source filed them. Rule as the data show it: active = GI50 up to about 1.1 µM and inactive = higher.

Assays:
Test in all cases: DTP human tumour cell line panel, 48 h
SR = test system: SR
RPMI-8226 = test system: RPMI-8226
SF-539 = test system: SF-539
MDA-N = test system: MDA-N
SK-MEL-2 = test system: SK-MEL-2
MOLT-4 = test system: MOLT-4
NCI-H460 = test system: NCI-H460
HCC 2998 = test system: HCC 2998
DU-145 = test system: DU-145
MDA-MB-231 = test system: MDA-MB-231
SK-MEL-28 = test system: SK-MEL-28
MCF7 = test system: MCF7
OVCAR-5 = test system: OVCAR-5
HCT-15 = test system: HCT-15
T47D = test system: T47D
SNB-75 = test system: SNB-75
SNB-19 = test system: SNB-19
NCI-H23 = test system: NCI-H23
SK-MEL-5 = test system: SK-MEL-5
UACC-62 = test system: UACC-62
OVCAR-8 = test system: OVCAR-8
OVCAR-4 = test system: OVCAR-4
CCRF-CEM = test system: CCRF-CEM
U-251 = test system: U-251
HT-29 = test system: HT-29
NCI/ADR-RES = test system: NCI/ADR-RES
NCI-H522 = test system: NCI-H522
A498 = test system: A498
Malme-3M = test system: Malme-3M
HCT-116 = test system: HCT-116
K562 = test system: K562
COLO 205 = test system: COLO 205
TK-10 = test system: TK-10
KM12 = test system: KM12
PC-3 = test system: PC-3
CAKI-1 = test system: CAKI-1
SN12C = test system: SN12C
MDA-MB-435 = test system: MDA-MB-435
M14 = test system: M14
UACC-257 = test system: UACC-257
RXF 393 = test system: RXF 393
EKVX = test system: EKVX
UO-31 = test system: UO-31
SF-268 = test system: SF-268
A549 = test system: A549
LOX IMVI = test system: LOX IMVI
HL-60 = test system: HL-60
NCI-H226 = test system: NCI-H226
HOP-92 = test system: HOP-92
ACHN = test system: ACHN
IGROV-1 = test system: IGROV-1
BT-549 = test system: BT-549
Hs-578T = test system: Hs-578T
786-0 = test system: 786-0
SW-620 = test system: SW-620
SK-OV-3 = test system: SK-OV-3
OVCAR-3 = test system: OVCAR-3
SF-295 = test system: SF-295
HOP-62 = test system: HOP-62

## N/N=c1\[nH]c2ccccc2o1
SR
  GI50: 52 µM (inactive)
RPMI-8226
  GI50: 67.6 µM (inactive)
SF-539
  GI50: > 100 µM (inactive)
MDA-N
  GI50: > 100 µM (inactive)
SK-MEL-2
  GI50: > 100 µM (inactive)
MOLT-4
  GI50: 24.2 µM (inactive)
NCI-H460
  GI50: > 100 µM (inactive)
HCC 2998
  GI50: > 100 µM (inactive)
DU-145
  GI50: > 100 µM (inactive)
MDA-MB-231
  GI50: > 100 µM (inactive)
SK-MEL-28
  GI50: > 100 µM (inactive)
MCF7
  GI50: 88.7 µM (inactive)
OVCAR-5
  GI50: > 100 µM (inactive)
HCT-15
  GI50: 77.3 µM
T47D
  GI50: 30.1 µM (inactive)
SNB-75
  GI50: > 100 µM (inactive)
SNB-19
  GI50: > 100 µM (inactive)
NCI-H23
  GI50: > 100 µM (inactive)
SK-MEL-5
  GI50: > 100 µM (inactive)
UACC-62
  GI50: > 100 µM (inactive)
OVCAR-8
  GI50: 64.6 µM (inactive)
OVCAR-4
  GI50: 46.5 µM (inactive)
CCRF-CEM
  GI50: 31.7 µM (inactive)
U-251
  GI50: > 100 µM (inactive)
HT-29
  GI50: > 100 µM (inactive)
NCI/ADR-RES
  GI50: 52.7 µM (inactive)
NCI-H522
  GI50: 57.1 µM (inactive)
A498
  GI50: > 100 µM (inactive)
Malme-3M
  GI50: > 100 µM (inactive)
HCT-116
  GI50: 80 µM (inactive)
K562
  GI50: 89.7 µM (inactive)
COLO 205
  GI50: > 100 µM (inactive)
TK-10
  GI50: > 100 µM (inactive)
KM12
  GI50: > 100 µM (inactive)
PC-3
  GI50: > 100 µM (inactive)
CAKI-1
  GI50: > 100 µM (inactive)
SN12C
  GI50: > 100 µM (inactive)
MDA-MB-435
  GI50: > 100 µM (inactive)
M14
  GI50: > 100 µM (inactive)
UACC-257
  GI50: > 100 µM (inactive)
RXF 393
  GI50: > 100 µM (inactive)
EKVX
  GI50: > 100 µM (inactive)
UO-31
  GI50: 93.5 µM (inactive)
SF-268
  GI50: > 100 µM (inactive)
A549
  GI50: > 100 µM (inactive)
LOX IMVI
  GI50: > 100 µM (inactive)
HL-60
  GI50: 53.6 µM (inactive)
NCI-H226
  GI50: > 100 µM (inactive)
HOP-92
  GI50: > 100 µM (inactive)
ACHN
  GI50: > 100 µM (inactive)
IGROV-1
  GI50: > 100 µM (inactive)
BT-549
  GI50: > 100 µM (inactive)
Hs-578T
  GI50: > 100 µM (inactive)
786-0
  GI50: 86.7 µM (inactive)
SW-620
  GI50: > 100 µM (inactive)

## CCC1(O)CC(OC2CC(N(C)C)C(OC3CC(O)C(OC4CCC(=O)C(C)O4)C(C)O3)C(C)O2)c2c(cc3c(c2O)C(=O)c2c(O)ccc(O)c2C3=O)C1C(=O)OC (centres undefined)
SK-OV-3
  GI50: < 0.01 µM (active)
SR
  GI50: < 0.01 µM (active)
RPMI-8226
  GI50: < 0.01 µM (active)
SF-539
  GI50: < 0.01 µM (active)
MDA-N
  GI50: < 0.01 µM (active)
SK-MEL-2
  GI50: < 0.01 µM (active)
MOLT-4
  GI50: < 0.01 µM (active)
NCI-H460
  GI50: < 0.01 µM (active)
HCC 2998
  GI50: < 0.01 µM (active)
DU-145
  GI50: < 0.01 µM (active)
MDA-MB-231
  GI50: < 0.0132 µM (active)
SK-MEL-28
  GI50: < 0.01 µM (active)
OVCAR-3
  GI50: 0.0101 µM (active)
MCF7
  GI50: < 0.01 µM (active)
OVCAR-5
  GI50: 0.0123 µM (active)
HCT-15
  GI50: < 0.01 µM
T47D
  GI50: < 0.01 µM (active)
SNB-75
  GI50: < 0.01 µM (active)
SNB-19
  GI50: < 0.0127 µM (active)
SF-295
  GI50: < 0.01 µM (active)
NCI-H23
  GI50: < 0.01 µM (active)
SK-MEL-5
  GI50: < 0.01 µM (active)
UACC-62
  GI50: < 0.01 µM (active)
OVCAR-8
  GI50: < 0.01 µM (active)
OVCAR-4
  GI50: < 0.01 µM (active)
CCRF-CEM
  GI50: < 0.01 µM (active)
U-251
  GI50: < 0.01 µM (active)
HT-29
  GI50: < 0.01 µM (active)
NCI/ADR-RES
  GI50: < 0.01 µM (active)
NCI-H522
  GI50: < 0.01 µM (active)
A498
  GI50: < 0.01 µM (active)
Malme-3M
  GI50: < 0.01 µM (active)
HCT-116
  GI50: < 0.01 µM (active)
K562
  GI50: < 0.01 µM (active)
COLO 205
  GI50: < 0.01 µM (active)
TK-10
  GI50: < 0.01 µM (active)
HOP-62
  GI50: < 0.01 µM (active)
KM12
  GI50: < 0.01 µM (active)
PC-3
  GI50: < 0.01 µM (active)
CAKI-1
  GI50: < 0.01 µM (active)
SN12C
  GI50: < 0.01 µM (active)
MDA-MB-435
  GI50: < 0.0122 µM (active)
M14
  GI50: < 0.01 µM (active)
UACC-257
  GI50: < 0.01 µM (active)
RXF 393
  GI50: < 0.01 µM (active)
EKVX
  GI50: < 0.01 µM (active)
UO-31
  GI50: < 0.01 µM (active)
SF-268
  GI50: < 0.01 µM (active)
A549
  GI50: < 0.01 µM (active)
LOX IMVI
  GI50: < 0.01 µM (active)
HL-60
  GI50: < 0.01 µM (active)
NCI-H226
  GI50: < 0.01 µM (active)
HOP-92
  GI50: < 0.01 µM (active)
ACHN
  GI50: < 0.01 µM (active)
IGROV-1
  GI50: < 0.01 µM (active)
BT-549
  GI50: < 0.0152 µM (active)
Hs-578T
  GI50: < 0.0407 µM (active)
786-0
  GI50: < 0.01 µM (active)
SW-620
  GI50: < 0.01 µM (active)
